Results from article PMC7955127, “Preclinical small molecule WEHI-7326 overcomes drug resistance and elicits response in patient-derived xenograft models of human treatment-refractory tumors” (Cell Death & Disease, 2021).

What was measured:
24 T TNBC PDX = test: TNBC PDX model 24T; format: in vivo, NOD-SCID-IL2Rγc–/– mice
Method: Cohorts of about 30 female mice were seeded with thawed single cell suspensions of early passage human breast tumors (passage 2 or 3). Briefly, 150,000–250,000 cells were resuspended in 10 µl of transplantation buffer (50% fetal calf serum, 10% of a 0.04% trypan blue solution and 40% PBS) and growth-factor-reduced Matrigel [BD] at a ratio of 3:1, and injected into the cleared mammary fat pads of 3- or 4-week-old NOD-SCID-IL2Rγc–/– female mice. Mice were monitored for tumor development three times weekly and tumor size measured using digital Vernier calipers. Tumor volume was estimated by measuring the minimum and maximum tumor diameters using the formula: (minimum diameter)^2 x (maximum diameter)/2. Once tumors arose, mice were randomized into treatment arms. Treatment was initiated when the tumor volume reached 80–120 mm^3. Randomization and tumor measurements were managed using the Study Director software (v 3.0, studylog). Mice were sacrificed at the first measurement where tumor volume exceeded 600 mm^3, or if their health deteriorated for reasons other than disease progression or drug toxicity (censored event).
Mice were treated with either docetaxel (10 mg/kg; i.p.; once), cisplatin (4 mg/kg; i.p.; once) or WEHI-7326 (20 mg/kg; twice a week (Monday and Thursday); i.v.). Vehicle treated mice were administered with the vehicle for WEHI-7326. Docetaxel was resuspended at 2 mg/ml in PBS:Tween-80:ethanol = 90:5:5 (v/v/v). WEHI-7326 was resuspended at 2 mg/ml in saline.

134183 HGSOC PDX = test: HGSOC PDX model 134183; format: in vivo, NSG mice; details: 134183 platinum-sensitive PDX; 20 mg/kg i.v. biweekly, 6 weeks
Method: Two to three mm ovarian tumor fragments were subcutaneously engrafted in the left flank of NSG mice and monitored by physical palpation for tumor growth and engraftment. Engrafted tumors were measured twice a week using digital Vernier calipers and maximum tumor diameter + perpendicular tumor length were digitally recorded into the Study Director software (v 3.0/4.0 StudyLog). Tumor volume was calculated automatically (tumor volume (mm^3) = 0.5236 x [larger diameter (mm) x smaller diameter (mm)^2]). Mice were randomized to treatment once their tumor volume reach 180–300 mm^3 and tumor measurements were performed twice a week up to 120 days or when the tumor volume reaches 700 mm^3.
Time to progressive disease (PD): Defined as the time (in days) from beginning of treatment to an increase in average tumor volume of >20% from the nadir (taken as the smallest average tumor volume recorded since treatment started or 200 mm^3 if nadir was <200 mm^3 as lesions smaller than this are difficult to measure with accuracy). Median time to harvest (TTH): Defined as the time (in days) from the beginning of treatment to day of harvest at 700 mm^3 and the median TTH was calculated and plotted using Kaplan-Meier curves. Based on ref. [27]. […]

SMILES: COc1ccc(CNc2nc(NCc3ccc(CN)cc3)nc(NN3CC(=O)NC3=O)n2)cc1 [WEHI-7326]
- Adverse effects in treatment arm (24 T TNBC PDX; 24 T PDX mice, 20 mg/kg i.v. twice a week, n = 7): 1 sick, 1 found dead, 1 with back leg paralysis
- Survival time (24 T TNBC PDX; 24 T PDX, docetaxel 10 mg/kg i.p. once, WEHI-7326 20 mg/kg i.v. biweekly): 45 days
- Median time to harvest (TTH) (134183 HGSOC PDX): lack of improvement
- Time to progressive disease (PD) (134183 HGSOC PDX): 53 days
